Assay results published in PubChem BioAssay AID1259407 (Chemical Carcinogenesis Research Information System (CCRIS), 2018).
Entries after “also recorded” stand apart in the source; their conditions may differ. Calls of active or inactive are those of the source. The rule behind the calls is not given here.

Test system: CCRIS mutagenicity, Ames/micronucleus/aberration tests
Assay: CCRIS mutagenicity studies
[1] = Test System: AMES SALMONELLA TYPHIMURIUM, Strain/Indicator: TA98, Metabolic Activation: NONE, Method: PREINCUBATION
[2] = Test System: AMES SALMONELLA TYPHIMURIUM, Strain/Indicator: TA100, Metabolic Activation: NONE, Method: PREINCUBATION
[3] = Test System: AMES SALMONELLA TYPHIMURIUM, Strain/Indicator: TA1535, Metabolic Activation: NONE, Method: PREINCUBATION
[4] = Test System: AMES SALMONELLA TYPHIMURIUM, Strain/Indicator: TA1537, Metabolic Activation: NONE, Method: PREINCUBATION
[5] = Test System: AMES SALMONELLA TYPHIMURIUM, Strain/Indicator: TA98, Metabolic Activation: NONE, Method: STANDARD PLATE

Question: What does the source list for `c12c3c4c5c1c1c6c7c2c2c8c3c3c9c4c4c%10c5c5c1c1c6c6c%11c7c2c2c7c8c3c3c8c9c4c4c9c%10c5c5c1c1c6c6c%11c2c2c7c3c3c8c4c4c9c5c1c1c6c2c3c41`?
Answer: mutagenic call (End Point: In vitro chromosomal aberrations, Test System: Chinese hamster lung (CHL/IU) cells, Metabolic Activation: None): inactive; negative; mutagenic call (End Point: In vitro chromosomal aberrations, Test System: Chinese hamster lung (CHL/IU) cells, Metabolic Activation: S-9): inactive; negative; mutagenic call (End Point: In vitro micronucleus, Test System: Chinese hamster ovary (CHO) cells, Metabolic Activation: None): active; positive (material tested was fullerol, c60(oh)24); also recorded: active; positive; actual chemical tested was hydroxyl fullerene c-60; mutagenic call (End Point: In vitro micronucleus, Test System: Human Hela cells, Metabolic Activation: None): active; positive (material tested was fullerol, c60(oh)24); mutagenic call (End Point: In vitro micronucleus, Test System: Human embryonic kidney 293 (HEK293) cells, Metabolic Activation: None): inactive; negative; actual chemical tested was hydroxyl fullerene c-60; mutagenic call (End Point: In vitro micronucleus, Test System: Human embryonic kidney cells (HEK 293), Metabolic Activation: None): active; positive (material tested was fullerol, c60(oh)24); mutagenic call (End Point: In vitro micronucleus, Test System: Human epidermoid-like carcinoma (Hela) cells, Metabolic Activation: None): inactive; negative; actual chemical tested was hydroxyl fullerene c-60; mutagenic call (Test System: Ames Salmonella typhimurium, Strain/Indicator: TA98, Metabolic Activation: None, Method: Preincubation): inactive; negative; mutagenic call (Test System: Ames Salmonella typhimurium, Strain/Indicator: TA98, Metabolic Activation: S-9, Method: Preincubation): inactive; negative; mutagenic call (Test System: Ames Salmonella typhimurium, Strain/Indicator: TA100, Metabolic Activation: None, Method: Preincubation): inactive; negative; mutagenic call (Test System: Ames Salmonella typhimurium, Strain/Indicator: TA100, Metabolic Activation: S-9, Method: Preincubation): inactive; negative; mutagenic call (Test System: Ames Salmonella typhimurium, Strain/Indicator: TA1535, Metabolic Activation: None, Method: Preincubation): inactive; negative; mutagenic call (Test System: Ames Salmonella typhimurium, Strain/Indicator: TA1535, Metabolic Activation: S-9, Method: Preincubation): inactive; negative; mutagenic call (Test System: Ames Salmonella typhimurium, Strain/Indicator: TA1537, Metabolic Activation: None, Method: Preincubation): inactive; negative; mutagenic call (Test System: Ames Salmonella typhimurium, Strain/Indicator: TA1537, Metabolic Activation: S-9, Method: Preincubation): inactive; negative; mutagenic call (Test System: E. coli, Strain/Indicator: WP2 uvrA/pKM101, Metabolic Activation: None, Method: Preincubation): inactive; negative; mutagenic call (Test System: E. coli, Strain/Indicator: WP2 uvrA/pKM101, Metabolic Activation: S-9, Method: Preincubation): inactive; negative; mutagenic call (Test System: Gpt delta transgenic mouse primary embryo fibroblasts (MEF), Strain/Indicator: Red/gam gene mutants, Metabolic Activation: None, Method: Spi- mutation assay): active; positive

Question: With `CNCCS(=O)(=O)O` as the compound, how does the mutagenic call (Test System: AMES SALMONELLA TYPHIMURIUM, Strain/Indicator: TA98, Metabolic Activation: HAMSTER, LIVER, S-9, AROCLOR 1254 (10%), Method: PREINCUBATION) read?
Answer: inactive; negative

Question: And the mutagenic call [1]?
Answer: inactive; negative

Question: And the mutagenic call (Test System: AMES SALMONELLA TYPHIMURIUM, Strain/Indicator: TA98, Metabolic Activation: RAT, LIVER, S-9, AROCLOR 1254 (10%), Method: PREINCUBATION)?
Answer: inactive; negative

Question: What about the mutagenic call (Test System: AMES SALMONELLA TYPHIMURIUM, Strain/Indicator: TA100, Metabolic Activation: HAMSTER, LIVER, S-9, AROCLOR 1254 (10%), Method: PREINCUBATION) of the same compound?
Answer: inactive; negative

Question: What about the mutagenic call [2] of the same compound?
Answer: inactive; negative

Question: What about the mutagenic call (Test System: AMES SALMONELLA TYPHIMURIUM, Strain/Indicator: TA100, Metabolic Activation: RAT, LIVER, S-9, AROCLOR 1254 (10%), Method: PREINCUBATION) of the same compound?
Answer: inactive; negative

Question: What about the mutagenic call (Test System: AMES SALMONELLA TYPHIMURIUM, Strain/Indicator: TA1535, Metabolic Activation: HAMSTER, LIVER, S-9, AROCLOR 1254 (10%), Method: PREINCUBATION) of the same compound?
Answer: inactive; negative

Question: And the mutagenic call [3]?
Answer: inactive; negative

Question: And the mutagenic call (Test System: AMES SALMONELLA TYPHIMURIUM, Strain/Indicator: TA1535, Metabolic Activation: RAT, LIVER, S-9, AROCLOR 1254 (10%), Method: PREINCUBATION)?
Answer: inactive; negative

Question: What about the mutagenic call (Test System: AMES SALMONELLA TYPHIMURIUM, Strain/Indicator: TA1537, Metabolic Activation: HAMSTER, LIVER, S-9, AROCLOR 1254 (10%), Method: PREINCUBATION) of the same compound?
Answer: inactive; negative

Question: And the mutagenic call [4]?
Answer: inactive; negative

Question: And the mutagenic call (Test System: AMES SALMONELLA TYPHIMURIUM, Strain/Indicator: TA1537, Metabolic Activation: RAT, LIVER, S-9, AROCLOR 1254 (10%), Method: PREINCUBATION)?
Answer: inactive; negative

Question: `CCCCOCCOP(=O)(OCCOCCCC)OCCOCCCC` was tested. Which mutagenic call (Test System: AMES SALMONELLA TYPHIMURIUM, Strain/Indicator: TA98, Metabolic Activation: HAMSTER, LIVER, S-9, AROCLOR 1254, Method: PREINCUBATION) did it give?
Answer: inactive; negative

Question: And the mutagenic call [1]?
Answer: inactive; negative

Question: What about the mutagenic call (Test System: AMES SALMONELLA TYPHIMURIUM, Strain/Indicator: TA98, Metabolic Activation: RAT, LIVER, S-9, AROCLOR 1254, Method: PREINCUBATION) of the same compound?
Answer: inactive; negative

Question: What about the mutagenic call (Test System: AMES SALMONELLA TYPHIMURIUM, Strain/Indicator: TA100, Metabolic Activation: HAMSTER, LIVER, S-9, AROCLOR 1254, Method: PREINCUBATION) of the same compound?
Answer: inactive; negative

Question: And the mutagenic call [2]?
Answer: inactive; negative

Question: What about the mutagenic call (Test System: AMES SALMONELLA TYPHIMURIUM, Strain/Indicator: TA100, Metabolic Activation: RAT, LIVER, S-9, AROCLOR 1254, Method: PREINCUBATION) of the same compound?
Answer: inactive; negative

Question: And the mutagenic call (Test System: AMES SALMONELLA TYPHIMURIUM, Strain/Indicator: TA1535, Metabolic Activation: HAMSTER, LIVER, S-9, AROCLOR 1254, Method: PREINCUBATION)?
Answer: inactive; negative

Question: And the mutagenic call [3]?
Answer: inactive; negative

Question: And the mutagenic call (Test System: AMES SALMONELLA TYPHIMURIUM, Strain/Indicator: TA1535, Metabolic Activation: RAT, LIVER, S-9, AROCLOR 1254, Method: PREINCUBATION)?
Answer: inactive; negative

Question: And the mutagenic call (Test System: AMES SALMONELLA TYPHIMURIUM, Strain/Indicator: TA1537, Metabolic Activation: HAMSTER, LIVER, S-9, AROCLOR 1254, Method: PREINCUBATION)?
Answer: inactive; negative

Question: What about the mutagenic call [4] of the same compound?
Answer: inactive; negative

Question: And the mutagenic call (Test System: AMES SALMONELLA TYPHIMURIUM, Strain/Indicator: TA1537, Metabolic Activation: RAT, LIVER, S-9, AROCLOR 1254, Method: PREINCUBATION)?
Answer: inactive; negative

Question: With `COc1cc([N+](=O)[O-])ccc1N` as the compound, how does the mutagenic call [5] read?
Answer: active; positive

Question: What about the mutagenic call (Test System: AMES SALMONELLA TYPHIMURIUM, Strain/Indicator: TA98, Metabolic Activation: RAT, LIVER, S-9, AROCLOR 1254, Method: STANDARD PLATE) of the same compound?
Answer: active; positive

Question: How did the mutagenic call [1] turn out when `O=C(O)[C@H]1OC(Oc2ccc3cc4ccc5cccc6ccc(c3c2)c4c56)[C@H](O)[C@@H](O)[C@@H]1O` (stereo partly drawn) was run?
Answer: inactive; negative

Question: And the mutagenic call (Test System: AMES SALMONELLA TYPHIMURIUM, Strain/Indicator: TA98, Metabolic Activation: RAT, LUNG, S-9, Method: PREINCUBATION)?
Answer: inactive; negative

Question: How did the mutagenic call [5] turn out when `O=[N+]([O-])c1ccc(-c2nc(NCCO)c3ccccc3n2)s1` was run?
Answer: active; positive

Question: What about the mutagenic call (Test System: AMES SALMONELLA TYPHIMURIUM, Strain/Indicator: TA100, Metabolic Activation: NONE, Method: STANDARD PLATE) of the same compound?
Answer: active; positive
